Measured values: patent publication US5478825A, “5-(substituted amino)-1,2,4-triazolo (1,5-A) pyrimidine derivatives” (Egis Gyogyszergyar, priority 1991, dated 1995)
Like-named read-outs stand apart in the source and are kept apart here.

Experiments:
[1] = test system: rats (vasopressin induced coronaria insufficiency); test: Antianginal effect in rats (vasopressin induced coronaria insufficiency); format: in vivo; details: Rattus norvegicus, iv; i.v. 2 minutes prior to vasopressin; T wave in ECG
Procedure: 3.a) Antianginal effect in rats
Rats weighing 180-220 g were narcotized with chloralose-urethane (70/700 mg/kg i.p.). The ECG was registered with needle electrodes in standard II leading. The experimental coronaria insufficiency was induced with vasopressin (1 NE/kg i.v.). The height of T wave in ECG was measured before and after the administration of vasopressin in both the control and treated groups. Test compounds were administered intravenously 2 minutes prior to the treatment with vasopressin.

[2] = test system: motility of mice; test: Motility inhibiting activity; format: in vivo; details: 100 mg/kg, orally
Procedure: 5. Motility inhibiting activity
The tests were performed according to the method of Borsy et al. [Arch. Int. Pharmacodyn. 124, 1-2 (1960)]. Groups consisting of 3 mice each were treated orally with different doses of the compounds to be tested. Then the test animals were placed in a Dews equipment. In this equipment the number of interruptions of infrared beam within 30 minutes was counted. The inhibition is expressed as the percentage of the value obtained for the control animals.

[3] = test system: carrageen oedema; test: Antiinflammatory (Carrageen oedema inhibiting) effect; format: in vivo
Procedure: 4. Antiinflammatory (Carrageen oedema inhibiting) effect
The experiments were carried out by the method of Winter et al. [Winter, C. A. et al.: Proc. Soc. […] 0.1 ml of a 1 per cent carrageen suspension was injected subcutaneously into the plantar region of one of the hind paws. Rats were fasted for 12 hours and received drinking water ad libitum. One hour before treatment with the test compound the animals were hydrated orally with 30 ml/kg of tap water. The test compounds or the vehicle were administered p.o. in a volume of 10 ml/kg, then one hour later carrageen was applied. The volume of the treated paw was measured by a plethysmometer before and 3 hours after injection in such a way that displacement of the liquid arising from the volume alteration was indicated on a millimeter scale. The volume of the treated paws were compared with those of the control group.

[4] = test system: right atrium; test: Positive inotropic effect in guinea pig (isolated right atrium); details: for Frequency: percentage change of atrial frequency; for Concentration force dP/dt: percentage change, 2 Hz, 37° C., concentration not given
Procedure: 2. Positive inotropic effect in guinea pig
The experiments were carried out by the method of Alousi [Alousi, A. A. et al.: J. Cardiovasc. […] Animals weighing 400-600 g were stunned with a blow to the head and exsanguinated. The heart was excised and the right atrium was removed and placed into a modified Tyrode solution of 37° C. It was then preloaded with 2.1 g and stimulated electrically at a rate of 2 Hz by rectangular pulses 0.5 ms in duration. The first derivative by time of the contraction force of the isolated organ (dP/dt) and the atrial frequency were recorded by a polygraph. From the data thus obtained percentage changes were calculated.

[5] = test system: anaesthetized cat, left ventricular pressure (dP/dtmax); test: Positive inotropic effect in anaesthetized cat; format: in vivo; details: Felis catus, iv; for change in vivo at 1 mg/kg: 1 mg/kg i.v.; for change in vivo at 5 mg/kg: 5 mg/kg i.v.; for change in vivo at 10 mg/kg: 10 mg/kg i.v.
Procedure: 1. Positive inotropic effect in anaesthetized cat
The experiments were carried out on male and female cats anaesthetized with chloralose-urethane (40/300 mg/kg i.p. in a volume of 1 ml/kg). A polyethylene catheter was inserted into the left ventricle via the right subclavian artery. The inotropic activity was measured with the aid of the first derivative by time of the left ventricular pressure curve (dP/dtmax). The blood pressure was measured by means of another catheter introduced from the left femoral artery into the upper third part of the abdominal artery. A Statham P23Db transducer and HSE (Hugo Sachs Electronics) amplifiers were used for both pressure measurements. […] The test compounds were administered via a femoral venous cannula.

[6] = test system: coronary artery; test: Coronary flow test in dog; format: in vivo
Procedure: 3.b) Coronary flow test in dog
The experiments were carried out in young mongrel do, of both sexes weighing 10-26 kg. The test compounds were administered in 1-5-10 mg/kg doses intravenously. […] Mean arterial blood pressure was recorded on the carotis with a Statham gauge (type: p23Db). The changes of the myocardial contractile forces were followed isometrically with a microdynamometer (type: Experimetria, SG-01) affixed to the anterior wall of the left ventricle. Data were collected on the first derivate of the myocardial contractile force to follow the changes of the contraction and relaxation speed. […] The changes of the heart rate were also followed. The conductivity of the coronary artery (the ratio of the mean coronary flow and the mean blood pressure) was calculated. The mean values were evaluated statistically using Student's test as well as regression analysis and multiple t test.

[7] = Rattus norvegicus, po, 3 h; read-out: ID30

In the case of `CSc1nc2nc3c(c(N4CCN(CCO)CC4)n2n1)CCC3` [Example 9, 5-[4-(2-Hydroxyethyl)piperazino]-2-(methylthio)-6,7-dihydro-8H-cyclopenta[d]-1,2,4-triazolo[1,5-a]pyrimidine], the ED50 [1] is reported as about 2 mg/kg.
`CN(C)CCCNc1c2c(nc3nc(N4CCOCC4)nn13)CCCC2` [Example 22, 5-[N-(3-Dimethylaminopropyl)]amino-2-morpholino-6,7,8,9-tetrahydro-1,2,4-triazolo[5,1-b]quinazoline] was tested, and the ED50 [1] was about 2 mg/kg.
For `C1CCN(c2c3c(nc4nc(N5CCOCC5)nn24)CCC3)CC1` [Example 16, 2-Morpholino-5-piperidino-6,7-dihydro-8H-cyclopenta[d]-1,2,4-triazolo[1,5-a]pyrimidine], the “Change in motility vs control” value [2] was -53% and the ED50 [1] was 1.52 mg/kg.
Compound `COc1ccc(CNc2c3c(nc4nc(SC)nn24)CCC3)cc1` [Example 50, 2-(Methylthio)-5-(4-methoxybenzylamino)-6,7-dihydro-8H-cyclopenta[d]-1,2,4-triazolo[1,5-a]pyrimidine] has an ED30 [3, 7] of 190 mg/kg.
In the case of `Nc1cc(-c2ccncc2)c[nH]c1=O` [Amrinone, reference compound], the Frequency [4] is reported as 28%, the “Concentration force dP/dt” value [4] is reported as 33% and the change in vivo at 1 mg/kg [5] is reported as 19%. For the same compound, the change in vivo at 5 mg/kg [5] was 53.9% and the change in vivo at 10 mg/kg [5] was 48.3%.
With `CN(C)c1nc2nc3c(c(NCCCN4CCOCC4)n2n1)SCCC3` [Example 53, 2-(Dimethylamino)-5-[N-(3-morpholinopropyl)]amino7,8-dihydro-9H-thiopyrano[3,2-d]-1,2,4-triazolo[1,5-a]pyrimidine] the change in vivo at 0.5 mg/kg ([5]; 0.5 mg/kg i.v.) was 35.5%, the change in vivo at 1 mg/kg [5] was 48% and the change in vivo at 5 mg/kg [5] was 95%. The change in vivo at 10 mg/kg [5] was 93.6%.
With `CC(=O)Oc1ccccc1C(=O)O` [Acetylsalicylic acid, reference compound] the ED30 ([3]; Rattus norvegicus, po, 3 h, read-out: ID30) was 62.4 mg/kg.
`CCOC(=O)CNc1c2c(nc3nc(SC)nn13)CCC2` [Example 60, Ethyl N-[2-methylthio-6,7-dihydro-8H-cyclopenta[d]-1,2,4-triazolo[1,5-a]pyrimidin-5-yl]glycinate] gave an ED50 [1] of about 2 mg/kg.
`CSc1nc2nc3c(c(NCc4ccccc4)n2n1)CCC3` [Example 6, 5-(Benzylamino)-2-(methylthio)-6,7-dihydro-8H-cyclopenta[d]-1,2,4-triazolo[1,5-a]pyrimidine] showed an ED50 [1] of 1.49 mg/kg.
`CCN(CC)c1c2c(nc3nc(N(C)C)nn13)CCCS2` [Example 26, 5-(Diethylamino)-2-(dimethylamino)-7,8-dihydro-9H-thiopyrano[3,2-d]-1,2,4-triazolo[1,5-a]pyrimidine] showed an ED30 [3, 7] of 170 mg/kg.
Compound `CC(=O)Nc1ccc(O)cc1` [Paracetamol, reference compound] has an ED30 [3, 7] of 195 mg/kg.
`CSc1nc2nc3c(c(NCc4ccc(Cl)cc4)n2n1)CCC3` [Example 7, 5-(4-Chlorobenzylamino)-2-(methylthio)-6,7-dihydro-8H-cyclopenta[d]-1,2,4-triazolo[1,5-a]pyrimidine] showed an ED30 [3, 7] of 200 mg/kg.
In the case of `CSc1nc2nc3c(c(NCCN4CCOCC4)n2n1)CCN(Cc1ccccc1)C3` [Example 46, 8-Benzyl-2-(methylthio)-5-[N-(2-morpholinoethyl)]amino-6,7,8,9-tetrahydropyrido[3,4-d]-1,2,4-triazolo[1,5-a]pyrimidine], the Frequency [4] is reported as -15% and the “Concentration force dP/dt” value [4] is reported as 80%.
For `CSc1nc2nc3c(c(NCCN4CCOCC4)n2n1)CCCCCCCCCC3` [Example 35, 2-(Methylthio)-5-[N-(2-morpholinoethyl)]amino-6,7,8,9,10,11,12,13,14,15-decahydro-cyclododeca[d]-1,2,4-triazolo[1,5-a]pyrimidine], the Frequency [4] was 8%, the “Concentration force dP/dt” value [4] was 79% and the “Conductivity of the coronary artery” value ([6]; 1 mg/kg i.v.) was 256%. The “Conductivity of the coronary artery” value ([6]; 5 mg/kg i.v.) was 940% and the “Conductivity of the coronary artery” value ([6]; 10 mg/kg i.v.) was 1030%.
For `CSc1nc2nc3c(c(NCCN4CCOCC4)n2n1)SCCC3` [Example 39, 2-(Methylthio)-5-[N-(2-morpholinoethyl)]amino-7,8-dihydro-9H-thiopyrano[3,2-d]-1,2,4-triazolo[1,5-a]pyrimidine], the Frequency [4] was -12% and the “Concentration force dP/dt” value [4] was 51%.
In the case of `CSc1nc2nc3c(c(NCCCN4CCOCC4)n2n1)CCCC3` [Example 19, 2-(Methylthio)-5-[N-(3-morpholinopropyl)]amino-6,7,8,9-tetrahydro-1,2,4-triazolo[5,1-b]quinazoline], the Frequency [4] is reported as -2%, the “Concentration force dP/dt” value [4] is reported as 171% and the change in vivo at 1 mg/kg [5] is reported as 35%. The change in vivo at 5 mg/kg [5] was 72.8% and the change in vivo at 10 mg/kg [5] was 90.6%.
With `CCSc1nc2nc3c(c(NCCN4CCOCC4)n2n1)CCCC3` [Example 31, 2-(Ethylthio)-5-[N-(2-morpholinoethyl)]amino-6,7,8,9-tetrahydro-1,2,4-triazolo[5,1-b]quinazoline] the change in vivo at 1 mg/kg [5] was 46.5%, the change in vivo at 5 mg/kg [5] was 131% and the change in vivo at 10 mg/kg [5] was 129%.
Compound `C=CCN(CC=C)c1c2c(nc3nc(SC)nn13)CCC2` [Example 4, 5-(Diallylamino)-2-(methylthio)-6,7-dihydro-8H-cyclopenta[d]-1,2,4-triazolo[1,5-a]pyrimidine] has an ED50 [1] of 1.97 mg/kg.
Work on `CC(C)Sc1nc2nc3c(c(NCCCN4CCOCC4)n2n1)CCCC3` [Example 30, 2-(1-Methylethylthio)-5-[N-(3-morpholinopropyl)]amino-6,7,8,9-tetrahydro-1,2,4-triazolo[5,1-b]quinazoline] yielded a change in vivo at 1 mg/kg [5] of 22.3%, a change in vivo at 5 mg/kg [5] of 53.8% and a change in vivo at 10 mg/kg [5] of 86.8%. The “Conductivity of the coronary artery” value ([6]; 1 mg/kg i.v.) was 166%, the “Conductivity of the coronary artery” value ([6]; 5 mg/kg i.v.) was 397% and the “Conductivity of the coronary artery” value ([6]; 10 mg/kg i.v.) was 481%.
In the case of `CSc1nc2nc3c(c(N4CCOCC4)n2n1)CCC3` [Example 8, 2-(Methylthio)-5-morpholino-6,7-dihydro-8H-cyclopenta[d]-1,2,4-triazolo[1,5-a]pyrimidine], the Frequency [4] is reported as -5%, the “Concentration force dP/dt” value [4] is reported as 86% and the change in vivo at 1 mg/kg [5] is reported as 42.8%. For the same compound, the change in vivo at 5 mg/kg [5] was 76% and the change in vivo at 10 mg/kg [5] was 86.3%.
For `CSc1nc2nc3c(c(N4CCN(Cc5ccccc5)CC4)n2n1)CCC3` [Example 54, 5-(4-Benzylpiperazino)-2-(methylthio)-6,7-dihydro-8H-cyclopenta[d]-1,2,4-triazolo[1,5-a]pyrimidine], the ED30 [3, 7] was 85 mg/kg.
`CSc1nc2nc3c(c(NCCN4CCOCC4)n2n1)CCCCC3` [Example 37, 2-(Methylthio)-5-[N-(2-morpholinoethyl)]amino-6,7,8,9-tetrahydro-10H-cyclohepta[d]-1,2,4-triazolo[1,5-a]pyrimidine] was tested, and the “Conductivity of the coronary artery” value ([6]; 1 mg/kg i.v.) was 188%, the “Conductivity of the coronary artery” value ([6]; 5 mg/kg i.v.) was 371% and the “Conductivity of the coronary artery” value ([6]; 10 mg/kg i.v.) was 780%.
For `CSc1nc2nc3c(c(NCCN4CCOCC4)n2n1)CCC3` [Example 10, 2-(Methylthio)-5-[N-(2-morpholinoethyl)]amino-6,7-dihydro-8H-cyclopenta[d]-1,2,4-triazolo[1,5-a]pyrimidine], the ED30 [3, 7] was 120 mg/kg and the ED50 [1] was 1.47 mg/kg.
